Here are results for one compound from patent EP1058679B1.

The conditions of this series: from CC[Si](CC)(CC)O[C@@H](CC(=O)O)C(C)(C)C(=O)[C@H](C)[C@@H](OC(=O)OCC(Cl)(Cl)Cl)[C@@H](C)CCC/C(C)=C\C[C@H](O)/C(C)=C/c1csc(C)n1; ester bond; 2,4,6-trichlorobenzoyl chloride, Et3N, DMAP; toluene; 0.79 mM; 25.0 °C; 3.5 h.

As to `CC[Si](CC)(CC)O[C@H]1CC(=O)O[C@H](/C(C)=C/c2csc(C)n2)C/C=C(/C)CCC[C@H](C)[C@H](OC(=O)OCC(Cl)(Cl)Cl)[C@@H](C)C(=O)C1(C)C`, the ring closure, yield of all isomers turned out to be 78%.
